In assay [1] the target is mutEGFR (D770_N771insSVD) (Homo sapiens, UniProt P00533, INS767SVD). Description: Exon20-mutant-EGFR (D770_N771insSVD) TR-FRET kinase assay. In kind it is biochemical. Particulars: 2 mM ATP, 15 min preincubation. Summed up:
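GST-fused human EGFR fragment R669-A1210 carrying the SVD insertion, Sf9-expressed, typically 15 pg/μl, was preincubated with compound for 15 min at 22° C in pH 7.0 Hepes/MgCl2 buffer. Phosphorylation was read by HTRF (665/620 nm ratio), normalised to no-inhibitor and no-enzyme controls.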
A general note: TR-FRET usually uses a lanthanide donor and a delayed reading to cut background.

Assay [2] deals with mutEGFR (D770_N771insNPG, T790). Description: mutEGFR (D770_N771insNPG, T790) kinase assay. The class given is biochemical, human.
Chain of mutEGFR (D770_N771insNPG, T790) (P00533 with tags, fused parts or gaps INS770NPG limits assumed): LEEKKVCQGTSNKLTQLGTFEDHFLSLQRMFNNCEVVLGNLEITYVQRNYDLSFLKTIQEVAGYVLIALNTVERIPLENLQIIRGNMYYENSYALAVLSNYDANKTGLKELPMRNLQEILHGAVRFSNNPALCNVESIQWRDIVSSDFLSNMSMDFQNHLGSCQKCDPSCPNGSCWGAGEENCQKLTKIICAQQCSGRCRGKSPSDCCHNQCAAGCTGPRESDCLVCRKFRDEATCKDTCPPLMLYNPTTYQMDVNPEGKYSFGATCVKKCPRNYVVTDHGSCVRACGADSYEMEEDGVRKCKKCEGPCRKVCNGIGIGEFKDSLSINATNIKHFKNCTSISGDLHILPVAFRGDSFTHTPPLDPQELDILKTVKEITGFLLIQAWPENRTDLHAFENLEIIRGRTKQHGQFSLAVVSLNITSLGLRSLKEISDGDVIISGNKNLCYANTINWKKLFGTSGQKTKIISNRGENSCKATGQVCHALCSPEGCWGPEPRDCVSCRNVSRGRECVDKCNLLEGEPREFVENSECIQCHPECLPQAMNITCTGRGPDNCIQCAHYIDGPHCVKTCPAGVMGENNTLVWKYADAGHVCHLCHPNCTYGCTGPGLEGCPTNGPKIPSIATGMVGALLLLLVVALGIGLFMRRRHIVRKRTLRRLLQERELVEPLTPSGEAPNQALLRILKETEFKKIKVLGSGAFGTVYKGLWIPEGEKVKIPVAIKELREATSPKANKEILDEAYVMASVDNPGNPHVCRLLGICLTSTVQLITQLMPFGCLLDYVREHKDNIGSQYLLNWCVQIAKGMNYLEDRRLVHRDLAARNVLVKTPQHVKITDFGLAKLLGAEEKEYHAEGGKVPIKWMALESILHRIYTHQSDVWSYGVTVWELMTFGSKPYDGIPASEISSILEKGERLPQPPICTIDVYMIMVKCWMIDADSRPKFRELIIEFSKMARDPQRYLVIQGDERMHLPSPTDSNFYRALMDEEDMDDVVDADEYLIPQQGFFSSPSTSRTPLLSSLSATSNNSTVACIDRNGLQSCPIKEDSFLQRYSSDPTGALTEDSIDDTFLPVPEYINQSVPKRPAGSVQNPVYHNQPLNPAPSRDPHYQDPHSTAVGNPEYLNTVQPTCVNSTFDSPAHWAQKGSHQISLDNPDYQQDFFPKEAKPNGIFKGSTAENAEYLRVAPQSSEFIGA
A further assay relates to BA/F3 (insSVD) cells. Description: Ba/F3 cell survival assay (Cell Titer-Glo), EGFR-insSVD. In kind it is cell-based. Particulars: Mus musculus, BaF3, 48 h, without IL-3, with EGF. Summed up:
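Ba/F3 cells stably expressing EGFR-insSVD or insSVD T790M via retrovirus (puromycin-selected), switched from IL-3 to 10 ng/mL EGF for 2 days, then plated at 4000 cells/well. Compound added by 100 nL pin transfer; 48 h at 37° C. Viability by CellTiter-Glo luminescence.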
(In general: Cellular ATP, detected with luciferase, serves as a proxy for viable cell number.)

Assay [3] deals with BA/F3 (EGFR D770_N771 insSVD T790M) cells. Description: Ba/F3 cell survival assay (Cell Titer-Glo), EGFR-insSVD T790M. The class given is cell-based. The note with it: Ba/F3 EGFR-D770-N771ins_SVD; 48 h, without IL-3, with EGF. On the procedure:
293T cells from ATCC were transfected with pBABEpuro expression constructs for WT EGFR or EGFR-insSVD, or EGFR-insSVD T790M, and pCL-Eco packaging vector using Fugene-6 transfection reagent from Promega. Plates were incubated at 37° C. for 48 h. Retrovirus was harvested by filtering the media supernatant through a 0.45 μm filter.
Ba/F3 cells purchased from DSMZ were grown in RPMI+10% FBS+10 ng/mL IL-3 and infected with filtered retroviral supernatant at a 1:2 dilution. Polybrene was added to a concentration of 8 μg/mL, plates were spun for 90 min, and incubated for 16 h at 37° C. 2 μg/mL puromycin was added to the infected cells 24 h after infection and cells were continually grown in the presence of puromycin and 10 ng/mL IL-3. Following stably expressing Ba/F3 cell lines were generated: Ba/F3-EGFR-WT, Ba/F3-EGFR-insSVD, Ba/F3-EGFR-insSVD T790M, (Ba/F3-vector-control).
For cell survival assays, Ba/F3 cells were grown to a density of 1-2 million cells per mL, spun down and resuspended in media without IL-3, and replated at a concentration of 200,000-500,000 cells per mL. The cells ectopically expressing WT EGFR, EGFR-insSVD, or EGFR-insSVD T790M were plated with 10 ng/mL Millipore Culture grade EGF. The cells ectopically expressing pBABEpuro empty vector were plated with 10 ng/mL IL-3.
2 days later, cells were plated in 50 μL in a 384 well plate at a concentration of 4000 cells per well for cells assayed in the absence of IL-3 and 2000 cells per well for cells assayed in the presence of IL-3. 100 nL of compound was added to each well using a 100 nL pin head, and plates were incubated at 37° C. for 48 h.
Cell viability was measured by adding 20 μL of Cell Titer-Glo Luminescent Cell Viability Reagent diluted 1:3 in PBS. Plates were sealed with Perkin Elmer Top-Seal, inverted several times to mix, and immediately centrifuged at 1000 rpm for 2 min. Plates were incubated in low light conditions for 8-10 min and luminescence was measured.

pIC50: −log10 of the molar value. A value given as a limit tells only on which side of the number the result lay.

Chain of mutEGFR (D770_N771insSVD) (P00533 with tags, fused parts or gaps INS767SVD limits assumed): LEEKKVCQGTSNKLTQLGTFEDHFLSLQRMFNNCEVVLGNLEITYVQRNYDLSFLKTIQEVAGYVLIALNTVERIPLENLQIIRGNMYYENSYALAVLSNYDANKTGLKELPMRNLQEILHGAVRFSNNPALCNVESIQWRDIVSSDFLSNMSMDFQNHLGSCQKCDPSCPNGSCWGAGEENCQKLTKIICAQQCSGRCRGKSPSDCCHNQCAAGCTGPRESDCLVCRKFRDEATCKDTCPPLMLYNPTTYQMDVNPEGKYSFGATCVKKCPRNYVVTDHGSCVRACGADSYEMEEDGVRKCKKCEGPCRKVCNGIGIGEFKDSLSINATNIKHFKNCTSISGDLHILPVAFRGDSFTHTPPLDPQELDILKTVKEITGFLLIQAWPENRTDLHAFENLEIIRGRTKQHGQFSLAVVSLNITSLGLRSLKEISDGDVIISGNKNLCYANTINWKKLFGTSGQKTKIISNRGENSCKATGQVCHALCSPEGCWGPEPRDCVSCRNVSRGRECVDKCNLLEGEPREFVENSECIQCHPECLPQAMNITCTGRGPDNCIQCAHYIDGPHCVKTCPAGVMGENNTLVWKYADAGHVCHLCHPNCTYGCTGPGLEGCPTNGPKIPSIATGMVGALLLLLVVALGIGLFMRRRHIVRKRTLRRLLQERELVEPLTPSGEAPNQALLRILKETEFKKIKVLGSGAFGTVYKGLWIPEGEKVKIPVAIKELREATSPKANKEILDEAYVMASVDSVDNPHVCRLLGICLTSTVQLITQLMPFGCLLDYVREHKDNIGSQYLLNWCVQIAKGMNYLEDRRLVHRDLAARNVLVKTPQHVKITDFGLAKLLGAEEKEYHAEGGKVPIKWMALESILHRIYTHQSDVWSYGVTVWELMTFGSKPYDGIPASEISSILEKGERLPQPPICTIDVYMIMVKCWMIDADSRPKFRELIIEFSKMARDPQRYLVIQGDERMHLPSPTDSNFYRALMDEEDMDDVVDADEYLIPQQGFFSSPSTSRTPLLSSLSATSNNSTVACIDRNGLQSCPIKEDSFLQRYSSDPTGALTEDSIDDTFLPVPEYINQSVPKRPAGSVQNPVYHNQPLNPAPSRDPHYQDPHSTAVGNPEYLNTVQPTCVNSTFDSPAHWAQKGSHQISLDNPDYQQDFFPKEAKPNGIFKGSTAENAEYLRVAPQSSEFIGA

In general, pIC50 refers to the negative decadic logarithm of the IC50, by convention in mol/L. Lower therefore signals a high IC50. In the case of `C=CC(=O)N(C)CCOc1cnccc1-c1[nH]c2cccnc2c1-c1ccc(Cl)c(C(=O)OC)c1` [Example 13, Methyl 2-chloro-5-[2-(3-{2-[methyl(prop-2-enoyl)amino]ethoxy}pyridin-4-yl)-1H-pyrrolo[3,2-b]pyridin-3-yl]benzoate], the negative-log IC50 (pIC50) is 6.14 in assay [1], 5.86 in assay [2], 5.21 in the assay with BA/F3 (insSVD) cells and 5.00 in assay [3].
For `C=CC(=O)N(C)CCOc1cnccc1-c1[nH]c2ccc(OC)nc2c1-c1ccccc1` [Example 8, N-(2-{[4-(5-methoxy-3-phenyl-1H-pyrrolo[3,2-b]pyridin-2-yl)pyridin-3-yl]oxy}ethyl)-N-methylprop-2-enamide], the pIC50 was 6.70 in assay [1], 6.28 in assay [2], 5.28 in the assay on BA/F3 (insSVD) cells and 5.05 in assay [3].
In the same order, the values of `C=CS(=O)(=O)N(C)CCOc1cnccc1-c1[nH]c2cccnc2c1-c1ccccc1` [Example 25, N-methyl-N-(2-{[4-(3-phenyl-1H-pyrrolo[3,2-b]pyridin-2-yl)pyridin-3-yl]oxy}ethyl)ethenesulfonamide] are 9.30, 8.68, 7.41 and 5.41.
The matching figures for `C=CS(=O)(=O)N1CCC[C@H]1COc1cnccc1-c1[nH]c2cccnc2c1-c1cccc(C(F)(F)F)c1` [Example 38, 2-(3-{[(2S)-1-(ethenesulfonyl)pyrrolidin-2-yl]methoxy}pyridin-4-yl)-3-[3-(trifluoromethyl)phenyl]-1H-pyrrolo[3,2-b]pyridine]: 9.39, 8.98, 7.70 and 6.83.
On to `C=CC(=O)N1CCC[C@H]1COc1cnccc1-c1[nH]c2cccnc2c1-c1cccc(C(F)(F)F)c1` [Example 39, 1-[(2S)-2-{[(4-{3-[3-(trifluoromethyl)phenyl]-1H-pyrrolo[3,2-b]pyridin-2-yl}pyridin-3-yl)oxy]methyl}pyrrolidin-1-yl]prop-2-en-1-one], for which the pIC50 in assay [1] was 8.92; in assay [2], 8.28; in the assay on BA/F3 (insSVD) cells, 7.04; in assay [3], 5.27.
The matching figures for `C=CS(=O)(=O)N(CC)CCOc1cnccc1-c1[nH]c2cccnc2c1-c1ccccc1` [Example 33, N-ethyl-N-(2-{[4-(3-phenyl-1H-pyrrolo[3,2-b]pyridin-2-yl)pyridin-3-yl]oxy}ethyl)ethenesulfonamide]: 9.45, 8.72, 7.51 and 6.60.
With `C=CC(=O)N(CC)CCOc1cnccc1-c1[nH]c2cccnc2c1-c1ccccc1` [Example 32, N-ethyl-N-(2-{[4-(3-phenyl-1H-pyrrolo[3,2-b]pyridin-2-yl)pyridin-3-yl]oxy}ethyl)prop-2-enamide], the pIC50 in assay [1] was 7.82; in assay [2], 7.52; in the assay with BA/F3 (insSVD) cells it was 6.44; in assay [3], 5.02.
The matching figures for `C=CC(=O)NCCCOc1cnccc1-c1[nH]c2cccnc2c1-c1ccccc1` [Example 5, N-(3-{[4-(3-phenyl-1H-pyrrolo[3,2-b]pyridin-2-yl)pyridin-3-yl]oxy}propyl)prop-2-enamide]: 4.95, less than 4.70, 5.00 and 5.00.
Regarding `C=CC(=O)NCCOc1cnccc1-c1[nH]c2cccnc2c1-c1ccc(F)cc1` [Example 1, N-[2-({4-[3-(4-fluorophenyl)-1H-pyrrolo[3,2-b]pyridin-2-yl]pyridin-3-yl}oxy)ethyl]prop-2-enamide], the pIC50 in assay [1] is 6.38; in assay [2] it was 6.22; in the assay with BA/F3 (insSVD) cells it was 5.35; in assay [3] it was 5.00.
With `C=CS(=O)(=O)N1CC[C@H]1COc1cnccc1-c1[nH]c2cccnc2c1-c1ccccc1` (single isomer, unassigned) [Example 141], the pIC50 in assay [1] was 9.22; in assay [2], 8.66; with BA/F3 (insSVD) cells, 6.64.
Turning to `CN(C)C/C=C/C(=O)N1CCC[C@H]1COc1cnccc1-c1[nH]c2cccnc2c1-c1ccc(F)c(OC(F)F)c1` [Example 104, (2E)-1-[(2S)-2-{[(4-{3-[3-(difluoromethoxy)-4-fluorophenyl]-1H-pyrrolo[3,2-b]pyridin-2-yl}pyridin-3-yl)oxy]methyl}pyrrolidin-1-yl]-4-(dimethylamino)but-2-en-1-one], the pIC50 in assay [1] was 7.43; in assay [2], 6.83; in the assay with BA/F3 (insSVD) cells it was 5.86.
In the same order, the values of `C=CC(=O)N(C)CCOc1cnccc1-c1[nH]c2cccnc2c1-c1cc(CC)ccc1F` [Example 48, N-[2-({4-[3-(5-ethyl-2-fluorophenyl)-1H-pyrrolo[3,2-b]pyridin-2-yl]pyridin-3-yl}oxy)ethyl]-N-methylprop-2-enamide] are 7.43, 6.96 and 6.02.
The matching figures for `C=CC(=O)N1C[C@@H](F)C[C@H]1COc1cnccc1-c1[nH]c2cccnc2c1-c1ccccc1` [Example 114, 1-[(2S,4S)-4-fluoro-2-({[4-(3-phenyl-1H-pyrrolo[3,2-b]pyridin-2-yl)pyridin-3-yl]oxy}methyl)pyrrolidin-1-yl]prop-2-en-1-one]: 9.02, 8.36 and 7.41.
In the same order, the values of `C=CC(=O)N(C)CCOc1cnccc1-c1[nH]c2cccnc2c1-c1ccccc1CC` [Example 53, N-[2-({4-[3-(2-ethylphenyl)-1H-pyrrolo[3,2-b]pyridin-2-yl]pyridin-3-yl}oxy)ethyl]-N-methylprop-2-enamide] are 6.95, 6.13 and 5.49.
As to `C=CC(=O)N1C[C@@H](C)C[C@H]1COc1cnccc1-c1[nH]c2cccnc2c1-c1ccccc1` [Example 110, 1-[(2S,4S)-4-methyl-2-({[4-(3-phenyl-1H-pyrrolo[3,2-b]pyridin-2-yl)pyridin-3-yl]oxy}methyl)pyrrolidin-1-yl]prop-2-en-1-one], the pIC50 in assay [1] is 8.90; in assay [2] it was 8.22; in the assay on BA/F3 (insSVD) cells it was 7.43.
The matching figures for `C=CC(=O)N1CC[C@@H]1COc1cnccc1-c1[nH]c2cccnc2c1-c1ccccc1` (single isomer, unassigned) [Example 140]: 9.52, 8.88 and 8.01.
Consider `C=CC(=O)N(C)CCOc1cnccc1-c1[nH]c2cccnc2c1-c1cccc(C(F)(F)F)c1` [Example 49, N-methyl-N-{2-[(4-{3-[3-(trifluoromethyl)phenyl]-1H-pyrrolo[3,2-b]pyridin-2-yl}pyridin-3-yl)oxy]ethyl}prop-2-enamide], for which the pIC50 was 7.24 in assay [1], 6.82 in assay [2] and 5.71 in the assay on BA/F3 (insSVD) cells.
In the same order, the values of `C=CC(=O)N1CCC[C@H]1COc1cnccc1-c1[nH]c2cccnc2c1-c1ccc(F)c(OC(F)(F)F)c1` [Example 106, 1-[(2S)-2-{[(4-{3-[4-fluoro-3-(trifluoromethoxy)phenyl]-1H-pyrrolo[3,2-b]pyridin-2-yl}pyridin-3-yl)oxy]methyl}pyrrolidin-1-yl]prop-2-en-1-one] are 7.88, 7.11 and 5.79.

For the origin of these results see US20260035365A1, “1H-PYRROLO[3,2-B]PYRIDINE DERIVATIVES AS IRREVERSIBLE INHIBITORS OF MUTANT EGFR FOR THE TREATMENT OF CANCER” (Bayer Aktiengesellschaft, priority 2022, published 2026).
